Experimental data from ChEMBL document CHEMBL5303573, “Mapping human microbiome drug metabolism by gut bacteria and their genes” (Nature, 2019).

Assays:
[1] = The drug is tested on Bacteroides finegoldii strain: DSM17565 for biotransformation. The drug concentrations were measured before and after a 12-h incubation by liquid-chromatography-coupled mass spectrometry (LC–MS); conditions: 2 µM
[2] = The drug is tested on Eubacterium hallii strain: DSM3353 for biotransformation. The drug concentrations were measured before and after a 12-h incubation by liquid-chromatography-coupled mass spectrometry (LC–MS); conditions: anaerobutyricum hallii, 2 µM
[3] = parabacteroides distasonis, 12 h, 2 µM
Description: The drug is tested on Parabacteroides distasonis strain: ATCC8503 for biotransformation. The drug concentrations were measured before and after a 12-h incubation by liquid-chromatography-coupled mass spectrometry (LC–MS)

[4] = bacteroides fragilis, 12 h, 2 µM
Description: The drug is tested on Bacteroides fragilis strain: 3397 (T10) for biotransformation. The drug concentrations were measured before and after a 12-h incubation by liquid-chromatography-coupled mass spectrometry (LC–MS)

[5] = The drug is tested on Ruminococcus gnavus strain: ATCC29149 for biotransformation. The drug concentrations were measured before and after a 12-h incubation by liquid-chromatography-coupled mass spectrometry (LC–MS); conditions: mediterraneibacter gnavus, 2 µM
[6] = The drug is tested on Bacteroides pectinophilus strain: ATCC43243 for biotransformation. The drug concentrations were measured before and after a 12-h incubation by liquid-chromatography-coupled mass spectrometry (LC–MS); conditions: 2 µM
[7] = parabacteroides johnsonii, 12 h, 2 µM
Description: The drug is tested on Parabacteroides johnsonii strain: DSM18315 for biotransformation. The drug concentrations were measured before and after a 12-h incubation by liquid-chromatography-coupled mass spectrometry (LC–MS)

[8] = The drug is tested on Clostridium asparagiforme strain: DSM15981 for biotransformation. The drug concentrations were measured before and after a 12-h incubation by liquid-chromatography-coupled mass spectrometry (LC–MS); format: ADME; design: dose 2 uM, timepoint 0 vs 12 hours; conditions: enterocloster asparagiformis, 2 µM
[9] = The drug is tested on Blautia luti strain: DSM14534 for biotransformation. The drug concentrations were measured before and after a 12-h incubation by liquid-chromatography-coupled mass spectrometry (LC–MS); format: ADME; design: dose 2 uM, timepoint 0 vs 12 hours; conditions: 2 µM
[10] = The drug is tested on Bacteroides uniformis strain: ATCC8492 for biotransformation. The drug concentrations were measured before and after a 12-h incubation by liquid-chromatography-coupled mass spectrometry (LC–MS); conditions: 2 µM
[11] = The drug is tested on Bacteroides coprophilus strain: DSM18228 for biotransformation. The drug concentrations were measured before and after a 12-h incubation by liquid-chromatography-coupled mass spectrometry (LC–MS); conditions: 2 µM
[12] = bacteroides thetaiotaomicron, 12 h, 2 µM
Description: The drug is tested on Bacteroides thetaiotaomicron strain: VPI-5482 for biotransformation. The drug concentrations were measured before and after a 12-h incubation by liquid-chromatography-coupled mass spectrometry (LC–MS)

[13] = The drug is tested on Eggerthella lenta strain: ATCC25559 for biotransformation. The drug concentrations were measured before and after a 12-h incubation by liquid-chromatography-coupled mass spectrometry (LC–MS); conditions: 2 µM
[14] = bacteroides stercoris, 12 h, 2 µM
Description: The drug is tested on Bacteroides stercoris strain: ATCC43183 for biotransformation. The drug concentrations were measured before and after a 12-h incubation by liquid-chromatography-coupled mass spectrometry (LC–MS)

[15] = The drug is tested on Collinsella intestinalis strain: DSM13280 for biotransformation. The drug concentrations were measured before and after a 12-h incubation by liquid-chromatography-coupled mass spectrometry (LC–MS); conditions: 2 µM
[16] = The drug is tested on Escherichia coli strain: BW25113 for biotransformation. The drug concentrations were measured before and after a 12-h incubation by liquid-chromatography-coupled mass spectrometry (LC–MS); conditions: 2 µM
[17] = The drug is tested on Clostridium ramosum strain: DSM1402 for biotransformation. The drug concentrations were measured before and after a 12-h incubation by liquid-chromatography-coupled mass spectrometry (LC–MS); conditions: thomasclavelia ramosa, 2 µM
[18] = anaerostipes sp., 12 h, 2 µM
Description: The drug is tested on Anaerostipes sp. strain: fecal isolate for biotransformation. The drug concentrations were measured before and after a 12-h incubation by liquid-chromatography-coupled mass spectrometry (LC–MS)

[19] = The drug is tested on Coprococcus comes strain: ATCC27758 for biotransformation. The drug concentrations were measured before and after a 12-h incubation by liquid-chromatography-coupled mass spectrometry (LC–MS); format: ADME; design: dose 2 uM, timepoint 0 vs 12 hours; conditions: 2 µM
[20] = The drug is tested on Ruminococcus torques strain: ATCC27756 for biotransformation. The drug concentrations were measured before and after a 12-h incubation by liquid-chromatography-coupled mass spectrometry (LC–MS); format: ADME; design: dose 2 uM, timepoint 0 vs 12 hours; conditions: 2 µM
[21] = The drug is tested on Clostridium symbiosum strain: ATCC14940 for biotransformation. The drug concentrations were measured before and after a 12-h incubation by liquid-chromatography-coupled mass spectrometry (LC–MS); conditions: 2 µM
[22] = enterocloster bolteae, 12 h, 2 µM
Description: The drug is tested on Clostridium bolteae strain: ATCCBAA-613 for biotransformation. The drug concentrations were measured before and after a 12-h incubation by liquid-chromatography-coupled mass spectrometry (LC–MS)

[23] = The drug is tested on Ruminococcus lactaris strain: ATCC29176 for biotransformation. The drug concentrations were measured before and after a 12-h incubation by liquid-chromatography-coupled mass spectrometry (LC–MS); conditions: 2 µM
[24] = bacteroides thetaiotaomicron, 12 h, 2 µM; remark: listed apart in the source
Description: The drug is tested on Bacteroides thetaiotaomicron strain: 3731 for biotransformation. The drug concentrations were measured before and after a 12-h incubation by liquid-chromatography-coupled mass spectrometry (LC–MS)

[25] = The drug is tested on Bacteroides caccae strain: ATCC43185 for biotransformation. The drug concentrations were measured before and after a 12-h incubation by liquid-chromatography-coupled mass spectrometry (LC–MS); conditions: 2 µM
[26] = The drug is tested on Bacteroides sp. WH2 strain: WH2 for biotransformation. The drug concentrations were measured before and after a 12-h incubation by liquid-chromatography-coupled mass spectrometry (LC–MS); conditions: bacteroides sp. wh2, 12 h, 2 µM
[27] = The drug is tested on Bifidobacterium longum subsp. Infantis strain: CCUG52486 for biotransformation. The drug concentrations were measured before and after a 12-h incubation by liquid-chromatography-coupled mass spectrometry (LC–MS); conditions: 2 µM
[28] = The drug is tested on Subdoligranulum variabile strain: DSM15176 for biotransformation. The drug concentrations were measured before and after a 12-h incubation by liquid-chromatography-coupled mass spectrometry (LC–MS); conditions: 2 µM
[29] = The drug is tested on Anaerotruncus colihominis strain: DSM17241 for biotransformation. The drug concentrations were measured before and after a 12-h incubation by liquid-chromatography-coupled mass spectrometry (LC–MS); conditions: 2 µM
[30] = The drug is tested on Eubacterium ventriosum strain: ATCC27560 for biotransformation. The drug concentrations were measured before and after a 12-h incubation by liquid-chromatography-coupled mass spectrometry (LC–MS); format: ADME; design: dose 2 uM, timepoint 0 vs 12 hours; conditions: 2 µM
[31] = limosilactobacillus reuteri cf48-3a, 12 h, 2 µM
Description: The drug is tested on Lactobacillus reuteri CF48-3A strain: BEI HM-102 for biotransformation. The drug concentrations were measured before and after a 12-h incubation by liquid-chromatography-coupled mass spectrometry (LC–MS)

[32] = bacteroides intestinalis, 12 h, 2 µM
Description: The drug is tested on Bacteroides intestinalis strain: DSM17393 for biotransformation. The drug concentrations were measured before and after a 12-h incubation by liquid-chromatography-coupled mass spectrometry (LC–MS)

[33] = segatella copri, 12 h, 2 µM
Description: The drug is tested on Prevotella copri strain: DSM18205 for biotransformation. The drug concentrations were measured before and after a 12-h incubation by liquid-chromatography-coupled mass spectrometry (LC–MS)

[34] = bacteroides fragilis, 12 h, 2 µM; remark: listed apart in the source
Description: The drug is tested on Bacteroides fragilis strain: NCTC 9343 for biotransformation. The drug concentrations were measured before and after a 12-h incubation by liquid-chromatography-coupled mass spectrometry (LC–MS)

[35] = The drug is tested on Clostridium scindens strain: ATCC35704 for biotransformation. The drug concentrations were measured before and after a 12-h incubation by liquid-chromatography-coupled mass spectrometry (LC–MS); conditions: 2 µM
[36] = The drug is tested on Odoribacter splanchnicus strain: fecal isolate for biotransformation. The drug concentrations were measured before and after a 12-h incubation by liquid-chromatography-coupled mass spectrometry (LC–MS); conditions: 2 µM
[37] = The drug is tested on Bacteroides dorei strain: DSM17855 for biotransformation. The drug concentrations were measured before and after a 12-h incubation by liquid-chromatography-coupled mass spectrometry (LC–MS); conditions: phocaeicola dorei, 2 µM
[38] = akkermansia muciniphila, 12 h, 2 µM
Description: The drug is tested on Akkermansia muciniphila strain: ATCC BAA-835 for biotransformation. The drug concentrations were measured before and after a 12-h incubation by liquid-chromatography-coupled mass spectrometry (LC–MS)

[39] = The drug is tested on Bifidobacterium ruminantium strain: fecal isolate for biotransformation. The drug concentrations were measured before and after a 12-h incubation by liquid-chromatography-coupled mass spectrometry (LC–MS); conditions: 2 µM
[40] = The drug is tested on Parabacteroides merdae strain: ATCC43184 for biotransformation. The drug concentrations were measured before and after a 12-h incubation by liquid-chromatography-coupled mass spectrometry (LC–MS); conditions: 2 µM
[41] = The drug is tested on Alistipes indistinctus strain: DSM22520 for biotransformation. The drug concentrations were measured before and after a 12-h incubation by liquid-chromatography-coupled mass spectrometry (LC–MS); conditions: 2 µM
[42] = The drug is tested on Bacteroides vulgatus strain: ATCC8482 for biotransformation. The drug concentrations were measured before and after a 12-h incubation by liquid-chromatography-coupled mass spectrometry (LC–MS); conditions: phocaeicola vulgatus, 2 µM
[43] = The drug is tested on Anaerococcus hydrogenalis strain: DSM7454 for biotransformation. The drug concentrations were measured before and after a 12-h incubation by liquid-chromatography-coupled mass spectrometry (LC–MS); conditions: 2 µM
[44] = The drug is tested on Bacteroides ovatus strain: ATCC8483 for biotransformation. The drug concentrations were measured before and after a 12-h incubation by liquid-chromatography-coupled mass spectrometry (LC–MS); conditions: 2 µM
[45] = The drug is tested on Eubacterium rectale strain: ATCC33656 for biotransformation. The drug concentrations were measured before and after a 12-h incubation by liquid-chromatography-coupled mass spectrometry (LC–MS); conditions: agathobacter rectalis, 2 µM
[46] = bifidobacterium adolescentis, 12 h, 2 µM
Description: The drug is tested on Bifidobacterium adolescentis strain: ATCC 15703 for biotransformation. The drug concentrations were measured before and after a 12-h incubation by liquid-chromatography-coupled mass spectrometry (LC–MS)

[47] = bacteroides eggerthii, 12 h, 2 µM
Description: The drug is tested on Bacteroides eggerthii strain: DSM20697 for biotransformation. The drug concentrations were measured before and after a 12-h incubation by liquid-chromatography-coupled mass spectrometry (LC–MS)

[48] = The drug is tested on Bacteroides fragilis strain: HMW615 for biotransformation. The drug concentrations were measured before and after a 12-h incubation by liquid-chromatography-coupled mass spectrometry (LC–MS); conditions: 2 µM
[49] = The drug is tested on Bifidobacterium breve strain: DSM20213 for biotransformation. The drug concentrations were measured before and after a 12-h incubation by liquid-chromatography-coupled mass spectrometry (LC–MS); conditions: 2 µM
[50] = The drug is tested on Bacteroides xylanisolvens strain: DSM18836 for biotransformation. The drug concentrations were measured before and after a 12-h incubation by liquid-chromatography-coupled mass spectrometry (LC–MS); conditions: 2 µM
[51] = roseburia intestinalis, 12 h, 2 µM
Description: The drug is tested on Roseburia intestinalis strain: L1-82 for biotransformation. The drug concentrations were measured before and after a 12-h incubation by liquid-chromatography-coupled mass spectrometry (LC–MS)

[52] = The drug is tested on Clostridium sporogenes strain: ATCC15579 for biotransformation. The drug concentrations were measured before and after a 12-h incubation by liquid-chromatography-coupled mass spectrometry (LC–MS); conditions: 2 µM
[53] = bacteroides fragilis, 12 h, 2 µM; remark: listed apart in the source
Description: The drug is tested on Bacteroides fragilis strain: DS-208 for biotransformation. The drug concentrations were measured before and after a 12-h incubation by liquid-chromatography-coupled mass spectrometry (LC–MS)

[54] = The drug is tested on Providencia rettgeri strain: DSM1131 for biotransformation. The drug concentrations were measured before and after a 12-h incubation by liquid-chromatography-coupled mass spectrometry (LC–MS); format: ADME; design: dose 2 uM, timepoint 0 vs 12 hours; conditions: 2 µM
[55] = The drug is tested on Collinsella aerofaciens strain: ATCC25986 for biotransformation. The drug concentrations were measured before and after a 12-h incubation by liquid-chromatography-coupled mass spectrometry (LC–MS); conditions: 2 µM

## CC#CCn1c(N2CCC[C@@H](N)C2)nc2c1c(=O)n(Cc1nc(C)c3ccccc3n1)c(=O)n2C [LINAGLIPTIN]
[1]
  Bacterial Biotransformation: Compound metabolized
[2]
  Bacterial Biotransformation: Compound NOT metabolized
[3]
  Bacterial Biotransformation: Compound metabolized
[4]
  Bacterial Biotransformation: Compound metabolized
[5]
  Bacterial Biotransformation: Compound NOT metabolized
[6]
  Bacterial Biotransformation: Compound NOT metabolized
[7]
  Bacterial Biotransformation: Compound metabolized
[8]
  Bacterial Biotransformation: Compound NOT metabolized
[9]
  Bacterial Biotransformation: Compound NOT metabolized
[10]
  Bacterial Biotransformation: Compound metabolized
[11]
  Bacterial Biotransformation: Compound metabolized
[12]
  Bacterial Biotransformation: Compound metabolized
[13]
  Bacterial Biotransformation: Compound NOT metabolized
[14]
  Bacterial Biotransformation: Compound metabolized
[15]
  Bacterial Biotransformation: Compound NOT metabolized
[16]
  Bacterial Biotransformation: Compound NOT metabolized
[17]
  Bacterial Biotransformation: Compound NOT metabolized
[18]
  Bacterial Biotransformation: Compound NOT metabolized
[19]
  Bacterial Biotransformation: Compound NOT metabolized
[20]
  Bacterial Biotransformation: Compound NOT metabolized
[21]
  Bacterial Biotransformation: Compound NOT metabolized
[22]
  Bacterial Biotransformation: Compound NOT metabolized
[23]
  Bacterial Biotransformation: Compound NOT metabolized
[24]
  Bacterial Biotransformation: Compound metabolized
[25]
  Bacterial Biotransformation: Compound metabolized
[26]
  Bacterial Biotransformation: Compound NOT metabolized
[27]
  Bacterial Biotransformation: Compound NOT metabolized
[28]
  Bacterial Biotransformation: Compound NOT metabolized
[29]
  Bacterial Biotransformation: Compound NOT metabolized
[30]
  Bacterial Biotransformation: Compound NOT metabolized
[31]
  Bacterial Biotransformation: Compound NOT metabolized
[32]
  Bacterial Biotransformation: Compound metabolized
[33]
  Bacterial Biotransformation: Compound metabolized
[34]
  Bacterial Biotransformation: Compound metabolized
[35]
  Bacterial Biotransformation: Compound NOT metabolized
[36]
  Bacterial Biotransformation: Compound metabolized
[37]
  Bacterial Biotransformation: Compound metabolized

## COc1cc(NC(C)CCCN)c2ncccc2c1.O=P(O)(O)O.O=P(O)(O)O (stereo not given) [PRIMAQUINE PHOSPHATE]
[1]
  Bacterial Biotransformation: Compound metabolized
[2]
  Bacterial Biotransformation: Compound NOT metabolized
[38]
  Bacterial Biotransformation: Compound NOT metabolized
[3]
  Bacterial Biotransformation: Compound metabolized
[4]
  Bacterial Biotransformation: Compound metabolized
[5]
  Bacterial Biotransformation: Compound NOT metabolized
[39]
  Bacterial Biotransformation: Compound metabolized
[6]
  Bacterial Biotransformation: Compound metabolized
[40]
  Bacterial Biotransformation: Compound NOT metabolized
[7]
  Bacterial Biotransformation: Compound metabolized
[41]
  Bacterial Biotransformation: Compound NOT metabolized
[42]
  Bacterial Biotransformation: Compound NOT metabolized
[10]
  Bacterial Biotransformation: Compound metabolized
[43]
  Bacterial Biotransformation: Compound metabolized
[11]
  Bacterial Biotransformation: Compound NOT metabolized
[44]
  Bacterial Biotransformation: Compound metabolized
[13]
  Bacterial Biotransformation: Compound NOT metabolized
[14]
  Bacterial Biotransformation: Compound NOT metabolized
[15]
  Bacterial Biotransformation: Compound metabolized
[16]
  Bacterial Biotransformation: Compound metabolized
[45]
  Bacterial Biotransformation: Compound NOT metabolized
[46]
  Bacterial Biotransformation: Compound NOT metabolized
[18]
  Bacterial Biotransformation: Compound NOT metabolized
[47]
  Bacterial Biotransformation: Compound NOT metabolized
[48]
  Bacterial Biotransformation: Compound NOT metabolized
[19]
  Bacterial Biotransformation: Compound NOT metabolized
[49]
  Bacterial Biotransformation: Compound metabolized
[20]
  Bacterial Biotransformation: Compound NOT metabolized
[21]
  Bacterial Biotransformation: Compound metabolized
[22]
  Bacterial Biotransformation: Compound metabolized
[50]
  Bacterial Biotransformation: Compound metabolized
[51]
  Bacterial Biotransformation: Compound NOT metabolized
[25]
  Bacterial Biotransformation: Compound NOT metabolized
[26]
  Bacterial Biotransformation: Compound NOT metabolized
[27]
  Bacterial Biotransformation: Compound metabolized
[52]
  Bacterial Biotransformation: Compound NOT metabolized
[28]
  Bacterial Biotransformation: Compound NOT metabolized
[53]
  Bacterial Biotransformation: Compound NOT metabolized
[31]
  Bacterial Biotransformation: Compound NOT metabolized
[33]
  Bacterial Biotransformation: Compound metabolized
[34]
  Bacterial Biotransformation: Compound NOT metabolized
[54]
  Bacterial Biotransformation: Compound NOT metabolized
[55]
  Bacterial Biotransformation: Compound metabolized
